Data taken from patent US20250195530A1, “POLQ INHIBITORS” (ASTRAZENECA AB, priority 2022, published 2025).
Read-outs that look alike come from different tables or passages of the source.

Columns and labels:
DLD-1 BRCA2−/− cells = experiment: Homologous recombination synthetic lethal inhibition of proliferation, DLD-1 BRCA2-/- (Cell Titre Glo 3D); assay type: cell-based; conditions: Homo sapiens, read-out: POLQ PD Prolif Lumin BRCA2 −/− mean pIC50 (converted)
Procedure, shortened: (§1)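 DLD-1 BRCA2−/− (3,000 cells/mL) and parental DLD-1 (1,500 cells/mL) cells in phenol red-free RPMI 1640 with 10% FBS were exposed to a 10-point, three-fold compound series from 10 μM to 0.51 nM at 37 °C, 5% CO2. Medium and compound were replenished on day 6. CellTiter-Glo 3D luminescence was read on day 7 (DLD-1) or day 12 (BRCA2−/−), and IC50 was taken as 50% reduction of maximum signal.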

DLD-1 cells = experiment: Inhibition of proliferation, DLD-1 BRCA2 wt control (Cell Titre Glo 3D); assay type: cell-based; conditions: Homo sapiens
Procedure, shortened: as §1

[1] = DLD-1, 288 h, DLD-1 BRCA2−/− cells, 12 days
[2] = DLD-1, 168 h, DLD-1 BRCA2 wt cells, 7 days, read-out: POLQ PD Prolif Lumin DLD1 mean pIC50 (converted)
[3] = DLD-1, DLD-1 BRCA2 −/− cells, mean
[4] = DLD-1, DLD1 BRCA2 wt cells, mean, read-out: POLQ PD Prolif Lumin DLD1 mean PIC50 (converted)

IC50 (DLD-1 cells; [2])	IC50 (DLD-1 cells; [4])	SMILES	IC50 (DLD-1 BRCA2−/− cells; [1])	IC50 (DLD-1 BRCA2−/− cells; [3])
	> 10000 nM	CC(=O)Nc1ccc(-c2nc3c(OC4(C)CC4)ncnc3n2Cc2cc(C)ccn2)c(Cl)c1 [Example T53, N-(3-chloro-4-(6-(1-methylcyclopropoxy)-9-((4-methylpyridin-2-yl)methyl)-9H-purin-8-yl)phenyl)acetamide]		316 nM
	> 10000 nM	Cc1ccnc(Cn2c(-c3cccc(CC(N)=O)c3Cl)nc3c(OC4(C)CC4)ncnc32)c1 [Example T56, 2-(2-chloro-3-(6-(1-methylcyclopropoxy)-9-((4-methylpyridin-2-yl)methyl)-9H-purin-8-yl)phenyl)acetamide]		794 nM
	> 10000 nM	CC1(Oc2ncnc3c2nc(-c2ccc(OCCCO)cc2Cl)n3Cc2cc(Cl)ccn2)CC1 [Example T64, 3-(3-chloro-4-(9-((4-chloropyridin-2-yl)methyl)-6-(1-methylcyclopropoxy)-9H-purin-8-yl)phenoxy)propan-1-ol]		158 nM
	> 10000 nM	CNCCOc1ccc(-c2nc3c(OC4(C)CC4)ncnc3n2Cc2cc(Cl)ccn2)c(Cl)c1 [Example T67, 2-(3-chloro-4-(9-((4-chloropyridin-2-yl)methyl)-6-(1-methylcyclopropoxy)-9H-purin-8-yl)phenoxy)-N-methylethan-1-amine]		126 nM
	> 10000 nM	CNCc1ccc(-c2nc3c(OC4(C)CC4)ncnc3n2Cc2cc(C)ccn2)c(Cl)c1 [Example T68, 1-(3-chloro-4-(6-(1-methylcyclopropoxy)-9-((4-methylpyridin-2-yl)methyl)-9H-purin-8-yl)phenyl)-N-methylmethanamine]		1000 nM
	> 10000 nM	Cc1ccnc(Cn2c(-c3ccc(OCCN)cc3Cl)nc3c(OC4(C)CC4)ncnc32)c1 [Example T69, 2-(3-chloro-4-(6-(1-methylcyclopropoxy)-9-((4-methylpyridin-2-yl)methyl)-9H-purin-8-yl)phenoxy)ethan-1-amine]		200 nM
	> 10000 nM	Cc1cnc(Cn2c(-c3ccc(O[C@H]4CCNC4)cc3Cl)nc3c(OC4(C)CC4)ncnc32)s1 [Example T70, (S)-2-((8-(2-chloro-4-(pyrrolidin-3-yloxy)phenyl)-6-(1-methylcyclopropoxy)-9H-purin-9-yl)methyl)-5-methylthiazole]		631 nM
	> 10000 nM	Cc1cnc(Cn2c(-c3ccc(OCCN(C)C)cc3Cl)nc3c(OC4(C)CC4)ncnc32)s1 [Example T72, 2-(3-chloro-4-(6-(1-methylcyclopropoxy)-9-((5-methylthiazol-2-yl)methyl)-9H-purin-8-yl)phenoxy)-N,N-dimethylethan-1-amine]		200 nM
	> 10000 nM	Cc1cnc(Cn2c(-c3cccc(OCCN(C)C)c3Cl)nc3c(OC4(C)CC4)ncnc32)s1 [Example T73, 2-(2-chloro-3-(6-(1-methylcyclopropoxy)-9-((5-methylthiazol-2-yl)methyl)-9H-purin-8-yl)phenoxy)-N,N-dimethylethan-1-amine]		631 nM
	> 10000 nM	CNCCCOc1ccc(-c2nc3c(OC4(C)CC4)ncnc3n2Cc2ncc(C)s2)c(Cl)c1 [Example T74, 3-(3-chloro-4-(6-(1-methylcyclopropoxy)-9-((5-methylthiazol-2-yl)methyl)-9H-purin-8-yl)phenoxy)-N-methylpropan-1-amine]		501 nM
	> 3160 nM	CC1(Oc2ncnc3c2nc(-c2ccc(OCCN4CCNCC4)cc2Cl)n3Cc2nnco2)CC1 [Example T76, 2-((8-(2-chloro-4-(2-(piperazin-1-yl)ethoxy)phenyl)-6-(1-methylcyclopropoxy)-9H-purin-9-yl)methyl)-1,3,4-oxadiazole]		> 10000 nM
	> 10000 nM	CC1(Oc2ncnc3c2nc(-c2cccc(/C=C/C(=O)O)c2Cl)n3Cc2cccc(Cl)c2)CC1 [Example T80, (E)-3-(2-chloro-3-(9-(3-chlorobenzyl)-6-(1-methylcyclopropoxy)-9H-purin-8-yl)phenyl)acrylic acid]		100 nM

Further lines, the molecule ahead of its results:

SMILES	IC50 (DLD-1 cells; [2])	IC50 (DLD-1 cells; [4])	IC50 (DLD-1 BRCA2−/− cells; [1])	IC50 (DLD-1 BRCA2−/− cells; [3])
CC1(Oc2ncnc3c2nc(-c2ccc(OCCCN4CCNCC4=O)cc2Cl)n3Cc2ccccc2)CC1 [Example S1, 1-(3-(4-(9-benzyl-6-(1-methylcyclopropoxy)-9H-purin-8-yl)-3-chlorophenoxy)propyl)piperazin-2-one]	> 10000 nM		39.8 nM	
CC1(Oc2ncnc3c2nc(-c2ccc(OCCCN4CCNC(=O)C4)cc2Cl)n3Cc2ccccc2)CC1 [Example S2, 4-(3-(4-(9-benzyl-6-(1-methylcyclopropoxy)-9H-purin-8-yl)-3-chlorophenoxy)propyl)piperazin-2-one]	2510 nM		50.1 nM	
CC1(Oc2ncnc3c2nc(-c2ccc(OCCN4CCNCC4)cc2Cl)n3Cc2cc(C3CC3)ccn2)CC1 [Example S3, 8-(2-chloro-4-(2-(piperazin-1-yl)ethoxy)phenyl)-9-((4-cyclopropylpyridin-2-yl)methyl)-6-(1-methylcyclopropoxy)-9H-purine]	> 10000 nM		794 nM	
CCc1ccnc(Cn2c(-c3ccc(OCCN4CCNCC4)cc3Cl)nc3c(OC4(C)CC4)ncnc32)c1 [Example S4, 8-(2-chloro-4-(2-(piperazin-1-yl)ethoxy)phenyl)-9-((4-ethylpyridin-2-yl)methyl)-6-(1-methylcyclopropoxy)-9H-purine]	> 10000 nM		794 nM	
Cc1cnc(Cn2c(-c3ccc(CC(N)=O)cc3Cl)nc3c(OC4(C)CC4)ncnc32)s1 [Example T4, 2-(3-chloro-4-(6-(1-methylcyclopropoxy)-9-((5-methylthiazol-2-yl)methyl)-9H-purin-8-yl)phenyl)acetamide]		> 10000 nM		1260 nM
Cc1ccnc(Cn2c(-c3ccc(S(N)(=O)=O)cc3Cl)nc3c(OC4(C)CC4)ncnc32)c1 [Example T9, 3-chloro-4-(6-(1-methylcyclopropoxy)-9-((4-methylpyridin-2-yl)methyl)-9H-purin-8-yl)benzenesulfonamide]		> 10000 nM		501 nM
CC1(Oc2ncnc3c2nc(-c2cccc(C(=O)O)c2Cl)n3Cc2cccc(Cl)c2)CC1 [Example T12, 2-chloro-3-(9-(3-chlorobenzyl)-6-(1-methylcyclopropoxy)-9H-purin-8-yl)benzoic acid]		> 10000 nM		> 10000 nM
Cc1ccnc(Cn2c(-c3ccc(C(=O)O)cc3Cl)nc3c(OC4(C)CC4)ncnc32)c1 [Example T13, 3-chloro-4-(6-(1-methylcyclopropoxy)-9-((4-methylpyridin-2-yl)methyl)-9H-purin-8-yl)benzoic acid]		> 10000 nM		> 10000 nM
Cc1ccnc(Cn2c(-c3ccc(C(N)=O)cc3Cl)nc3c(OC4(C)CC4)ncnc32)c1 [Example T14, 3-chloro-4-(6-(1-methylcyclopropoxy)-9-((4-methylpyridin-2-yl)methyl)-9H-purin-8-yl)benzamide]		> 10000 nM		501 nM
CC1(Oc2ncnc3c2nc(-c2ccc(OCCO)cc2Cl)n3Cc2cc(Cl)ccn2)CC1 [Example T15, 2-(3-chloro-4-(9-((4-chloropyridin-2-yl)methyl)-6-(1-methylcyclopropoxy)-9H-purin-8-yl)phenoxy)ethan-1-ol]		> 10000 nM		100 nM
Cc1ccnc(Cn2c(-c3ccc(S(C)(=O)=O)cc3Cl)nc3c(OC4(C)CC4)ncnc32)c1 [Example T16, 8-(2-chloro-4-(methylsulfonyl)phenyl)-6-(1-methylcyclopropoxy)-9-((4-methylpyridin-2-yl)methyl)-9H-purine]		> 10000 nM		794 nM
Cc1ccnc(Cn2c(-c3ccc(NS(C)(=O)=O)cc3Cl)nc3c(OC4(C)CC4)ncnc32)c1 [Example T29, N-(3-chloro-4-(6-(1-methylcyclopropoxy)-9-((4-methylpyridin-2-yl)methyl)-9H-purin-8-yl)phenyl)methanesulfonamide]		> 10000 nM		1260 nM
CNCCOc1ccc(-c2nc3c(OC4(C)CC4)ncnc3n2Cc2ncc(C)s2)c(Cl)c1 [Example T34, 2-(3-chloro-4-(6-(1-methylcyclopropoxy)-9-((5-methylthiazol-2-yl)methyl)-9H-purin-8-yl)phenoxy)-N-methylethan-1-amine]		> 10000 nM		501 nM
CC1(Oc2ncnc3c2nc(-c2cccc(OCC(=O)O)c2Cl)n3Cc2cccc(Cl)c2)CC1 [Example T41, 2-(2-chloro-3-(9-(3-chlorobenzyl)-6-(1-methylcyclopropoxy)-9H-purin-8-yl)phenoxy)acetic acid]		> 10000 nM		> 7940 nM
Cc1ccnc(Cn2c(-c3ccc(CC(=O)O)cc3Cl)nc3c(OC4(C)CC4)ncnc32)c1 [Example T49, 2-(3-chloro-4-(6-(1-methylcyclopropoxy)-9-((4-methylpyridin-2-yl)methyl)-9H-purin-8-yl)phenyl)acetic acid]		> 10000 nM		> 10000 nM
CC1(Oc2ncnc3c2nc(-c2ccc(OC4CNC4)cc2Cl)n3Cc2cc(Cl)ccn2)CC1 [Example T50, 8-(4-(azetidin-3-yloxy)-2-chlorophenyl)-9-((4-chloropyridin-2-yl)methyl)-6-(1-methylcyclopropoxy)-9H-purine]		5010 nM		251 nM
CNC(=O)c1ccc(-c2nc3c(OC4(C)CC4)ncnc3n2Cc2cc(C)ccn2)c(Cl)c1 [Example T52, 3-chloro-N-methyl-4-(6-(1-methylcyclopropoxy)-9-((4-methylpyridin-2-yl)methyl)-9H-purin-8-yl)benzamide]		> 10000 nM		501 nM
